Experimental data: patent US7320981B2, “Variolin derivatives as anti-cancer agents” (Pharma Mar, S.A., priority 2000, dated 2008)

Key:
A-549 = assay: SRB cell growth/viability assay, A-549
Source text: (§1) A colorimetric type of assay, using sulforhodamine B (SRB) reaction has been adapted for a quantitative measurement of cell growth and viability: see Skehan, P. A. et al. J. Natl. Cancer Inst., 1990, 82, 1107-1112. This form of the assay employs 96 well cell culture microplates of 9 mm diameter (Faircloth, G. T.; Stewart, D. and Clement, J. J., Journal of Tissue and Culture Methods, 1983, 11, 201-205; Mosmann, T. Journal of Immunological Methods, 1983, 65, 55-63.).
(§2) Most of the cell lines are obtained from American Type Culture Collection (ATCC) derived from different human cancer types. Cells are maintained in RPMI 1640 10% FBS, supplemented with 0.1 g/l penicillin and 0.1 g/l streptomycin sulfate and then incubated at 37° C., 5% CO2 and 98% humidity. For the experiments, cells were harvested from subconfluent cultures using trypsin and resuspended in fresh medium before plating.
(§3) Cells are seeded in 96 well microtiter plates, at 5×10^3 cells per well in aliquots of 195 μl medium, and they are allowed to attach to the plate surface by growing in drug free medium for 18 hours. Afterward, samples are in aliquots of 5 pi in a ranging from 10 to 10-8 μg/ml dissolved in DMSO/EtOH (0.2% in PS buffer). After 48 hours exposure, the antitumour effect are measured by the SRB methodology: cells are fixed by adding 50 μl of cold 50% (w/v) trichloroacetic acid (TCA) and incubating for 60 minutes at 4° C. Plates are washed with deionized water and dried. 100 μl of SRB solution (0.4% w/v in 1% acetic acid) is added to each microtiter well and incubated for 10 minutes at room temperature. Unbound SRB is removed by washing with 1% acetic acid. Plates are air-dried and bound stain is solubilized with Tris buffer. Optical densities are read on an automated spectrophotometric plate reader at a single wavelength of 490 nm.
(§4) The values for mean +/− SD of data from triplicate wells are calculated Some parameters for cellular responses can be calculated: […], TGI=total growth inhibition (cytostatic effect) and LC=cell killing (cytotoxic effect).

HT-29 = assay: SRB cell growth/viability assay, HT-29
Source text: as §1, §2, §3, §4

SW-620 = assay: SRB cell growth/viability assay, SW-620
Source text: as §1, §2, §3, §4

MEL-28 = assay: SRB cell growth/viability assay, MEL-28
Source text: as §1, §2, §3, §4

OVCAR-3 = assay: cells; type: cell-based; details: Table 1, ovary cell line OVCAR-3, 48 hours exposure, SRB
Source text: Plates are washed with deionized water and dried.

A498 = assay: SRB cell growth/viability assay, A498
Source text: as §1, §2, §3, §4

DU-145 = assay: SRB cell growth/viability assay, DU-145
Source text: as §1, §2, §3, §4

MCF-7 = assay: SRB cell growth/viability assay, MCF-7
Source text: as §1, §2, §3, §4

MB-231 = assay: SRB cell growth/viability assay, MB-231
Source text: as §1, §2, §3, §4

## CSc1nccc(-c2c3cccnc3n3c(N)nccc23)n1 [Compound 5, thiodeoxyvariolin]
A-549; Homo sapiens, A549, 48 h, read-out: GI50 (50% growth inhibition)
  GI50: 1000 nM
A-549; Homo sapiens, A549, 48 h, read-out: LC50 (50% net cell killing, cytotoxic effect)
  CC50: 10000 nM
A-549; Table 1, NSCL cell line A-549, 48 hours exposure, SRB
  TGI (total growth inhibition, cytostatic effect): 3.E−06 M
HT-29; Homo sapiens, HT-29, 48 h, read-out: GI50 (50% growth inhibition)
  GI50: 600 nM
HT-29; Homo sapiens, HT-29, 48 h, read-out: LC50 (50% net cell killing, cytotoxic effect)
  CC50: 10000 nM
HT-29; Table 1, colon cell line HT-29, 48 hours exposure, SRB
  TGI (total growth inhibition, cytostatic effect): 2.E−06 M
SW-620; Homo sapiens, SW-620, 48 h, read-out: GI50 (50% growth inhibition)
  GI50: 3000 nM
SW-620; Homo sapiens, SW-620, 48 h, read-out: LC50 (50% net cell killing, cytotoxic effect)
  CC50: 30000 nM
SW-620; Table 1, colon cell line SW-620, 48 hours exposure, SRB
  TGI (total growth inhibition, cytostatic effect): 1.E−05 M
MEL-28; Homo sapiens, SK-MEL-28, 48 h, read-out: GI50 (50% growth inhibition)
  GI50: 60 nM
MEL-28; Homo sapiens, SK-MEL-28, 48 h, read-out: LC50 (50% net cell killing, cytotoxic effect)
  CC50: 6000 nM
MEL-28; Table 1, melanoma cell line MEL-28, 48 hours exposure, SRB
  TGI (total growth inhibition, cytostatic effect): 3.E−07 M
OVCAR-3; Homo sapiens, read-out: GI50 (50% growth inhibition)
  GI50: 1000 nM
OVCAR-3; Homo sapiens, read-out: LC50 (50% net cell killing, cytotoxic effect)
  CC50: 3000 nM
OVCAR-3
  TGI (total growth inhibition, cytostatic effect): 2.E−06 M
A498; Homo sapiens, A498, 48 h, read-out: GI50 (50% growth inhibition)
  GI50: 600 nM
A498; Homo sapiens, A498, 48 h, read-out: LC50 (50% net cell killing, cytotoxic effect)
  CC50: 3000 nM
A498; Table 1, kidney cell line A498, 48 hours exposure, SRB
  TGI (total growth inhibition, cytostatic effect): 2.E−06 M
DU-145; Homo sapiens, DU-145, 48 h, read-out: GI50 (50% growth inhibition)
  GI50: 300 nM
DU-145; Homo sapiens, DU-145, 48 h, read-out: LC50 (50% net cell killing, cytotoxic effect)
  CC50: 3000 nM
DU-145; Table 1, prostate cell line DU-145, 48 hours exposure, SRB
  TGI (total growth inhibition, cytostatic effect): 1.E−06 M
MCF-7; Homo sapiens, MCF7, 48 h, read-out: GI50 (50% growth inhibition)
  GI50: 2000 nM
MCF-7; Homo sapiens, MCF7, 48 h, read-out: LC50 (50% net cell killing, cytotoxic effect)
  CC50: 30000 nM
MCF-7; Table 1, breast cell line MCF-7, 48 hours exposure, SRB
  TGI (total growth inhibition, cytostatic effect): 6.E−06 M
MB-231; Homo sapiens, 48 h, read-out: GI50 (50% growth inhibition)
  GI50: 2000 nM
MB-231; Homo sapiens, 48 h, read-out: LC50 (50% net cell killing, cytotoxic effect)
  CC50: 10000 nM
MB-231; Table 1, breast cell line MB-231, 48 hours exposure, SRB
  TGI (total growth inhibition, cytostatic effect): 6.E−07 M
